Results from US20100286145A1, “ISOPHTHALAMIDE DERIVATIVES INHIBITING BETA-SECRETASE ACTIVITY” (CoMentis, Inc., priority 2007, published 2010).
Where two headings read alike, the source gives them in different places.

How the values were obtained:
[1] = target: memapsin 2 (Homo sapiens, UniProt P56817); assay: Inhibition of memapsin 2 beta-secretase activity (fluorogenic substrate FS-2); assay type: biochemical; conditions: memapsin 2, pH 4, 37° C.
Summary of the method: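 Memapsin 2 pre-incubated 20 min with compound at pH 4, 37° C, then FS-2 substrate (MCA-SEVNLDAEFK-DNP, APP Swedish cleavage site) added. Rate of fluorescence increase compared with uninhibited controls, fitted to a tight-binding inhibition model.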

[2] = target: T1, memapsin 1 (Homo sapiens, UniProt Q9Y5Z0); assay: Inhibition of memapsin 1 beta-secretase activity (substrate peptide ELDLAVEFWHDR, MALDI-TOF); assay type: biochemical
T1 sequence (Q9Y5Z0 63-518): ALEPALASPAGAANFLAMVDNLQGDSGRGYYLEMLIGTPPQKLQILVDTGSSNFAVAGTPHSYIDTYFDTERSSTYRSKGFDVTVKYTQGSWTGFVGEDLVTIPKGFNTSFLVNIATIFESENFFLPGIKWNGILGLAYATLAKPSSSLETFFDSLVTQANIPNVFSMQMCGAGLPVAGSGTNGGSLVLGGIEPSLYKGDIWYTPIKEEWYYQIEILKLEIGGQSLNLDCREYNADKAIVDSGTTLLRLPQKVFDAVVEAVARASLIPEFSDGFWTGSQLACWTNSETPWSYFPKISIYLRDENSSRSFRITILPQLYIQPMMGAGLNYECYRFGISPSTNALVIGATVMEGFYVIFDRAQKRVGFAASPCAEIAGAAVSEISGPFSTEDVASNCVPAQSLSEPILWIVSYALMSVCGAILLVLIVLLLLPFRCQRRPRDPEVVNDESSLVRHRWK

[3] = target: cathepsin D (Homo sapiens, UniProt P07339); assay: Inhibition of cathepsin D activity (substrate peptide ELDLAVEFWHDR, MALDI-TOF); assay type: biochemical
[4] = test system: Aβ production in Chinese hamster ovary cells that over-express human APP695 with the London and Swedish mutations; assay: Cellular Aβ IC50 determination (Aβ40 sandwich ELISA); assay type: cell-based; conditions: Cricetulus griseus
Summary of the method: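 CHO cells overexpressing human APP695 with London and Swedish mutations, seeded at 10% confluency, treated with compounds up to about 4 μM final (0.4% DMSO). Secreted Aβ40 measured by sandwich ELISA relative to control and fitted to a 4-parameter IC50 model.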

[5] = 20 minutes pre-incubation, read-out: M2Ki
[6] = cellular Aβ production, read-out: IC50

Chain of cathepsin D (P07339 65-412, species assumed): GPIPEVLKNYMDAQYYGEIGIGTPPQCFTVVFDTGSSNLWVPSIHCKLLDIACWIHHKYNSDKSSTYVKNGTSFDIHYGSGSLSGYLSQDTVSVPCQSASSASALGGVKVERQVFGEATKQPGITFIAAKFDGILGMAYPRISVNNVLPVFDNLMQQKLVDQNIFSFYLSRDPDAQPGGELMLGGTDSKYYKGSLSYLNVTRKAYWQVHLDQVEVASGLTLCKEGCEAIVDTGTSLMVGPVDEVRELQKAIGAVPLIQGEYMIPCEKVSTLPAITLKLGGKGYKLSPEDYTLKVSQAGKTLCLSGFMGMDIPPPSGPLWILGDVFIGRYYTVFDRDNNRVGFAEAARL
Chain of memapsin 2 (P56817 46-501): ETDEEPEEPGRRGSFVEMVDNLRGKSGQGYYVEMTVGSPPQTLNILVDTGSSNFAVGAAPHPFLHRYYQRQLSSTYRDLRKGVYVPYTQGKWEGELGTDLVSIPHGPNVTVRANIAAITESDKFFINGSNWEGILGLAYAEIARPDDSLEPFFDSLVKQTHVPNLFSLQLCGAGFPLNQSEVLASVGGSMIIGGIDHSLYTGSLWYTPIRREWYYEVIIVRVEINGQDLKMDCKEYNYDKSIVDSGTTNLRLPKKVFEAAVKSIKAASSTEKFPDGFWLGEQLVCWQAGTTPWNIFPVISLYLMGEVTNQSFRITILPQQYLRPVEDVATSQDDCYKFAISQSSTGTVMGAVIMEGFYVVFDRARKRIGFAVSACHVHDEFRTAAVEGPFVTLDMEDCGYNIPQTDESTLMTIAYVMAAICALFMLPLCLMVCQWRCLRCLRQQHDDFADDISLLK

| Structure (SMILES) | Ki [1, 5] | Ki ([2]; read-out: M1Ki) | Ki ([3]; read-out: CDKi) | IC50 [4, 6] | Ki ([1]; read-out: M2 Ki) | Ki ([2]; read-out: M1 Ki) | Ki ([3]; read-out: CathD Ki) | IC50 ([4]; CHO cells, 24 h incubation, Aβ40, read-out: IC50 (cellular Aβ production)) |
| --- | --- | --- | --- | --- | --- | --- | --- | --- |
| COC(=O)c1cc(C(=O)N[C@@H](Cc2ccccc2)[C@H](O)CNCc2cccc(OC)c2)cc(C(=O)N(C)Cc2nc(C)cs2)c1 [Compound 17, methyl 3-((2S,3R)-3-hydroxy-4-(3-methoxybenzylamino)-1-phenylbutan-2-ylcarbamoyl)-5-(methyl((4-methylthiazol-2-yl)methyl)carbamoyl)benzoate] | < 300 nM | > 501 nM | < 300 nM | < 1000 nM |  |  |  |  |
| C=Cc1cc(C(=O)N[C@@H](Cc2ccccc2)[C@H](O)CNCc2cccc(OC)c2)cc(C(=O)N(C)Cc2nc(C)cs2)c1 [Compound 21, N1-((2S,3R)-3-hydroxy-4-(3-methoxybenzylamino)-1-phenylbutan-2-yl)-N3-methyl-N3-((4-methylthiazol-2-yl)methyl)-5-vinylisophthalamide] | < 300 nM | > 501 nM | < 300 nM | < 1000 nM |  |  |  |  |
| Cc1csc(CN(C(=O)c2cccc(C(=O)N[C@@H](Cc3ccccc3)[C@H](O)CNCc3cccc(C(F)(F)F)c3)c2)C2CC2)n1 [Compound 29, N1-cyclopropyl-N3-((2S,3R)-3-hydroxy-1-phenyl-4-(3-(trifluoromethyl)benzylamino)butan-2-yl)-N1-((4-methylthiazol-2-yl)methyl)isophthalamide] | < 300 nM | 301 to 500 nM | < 300 nM | < 1000 nM |  |  |  |  |
| COc1cc(CNC[C@@H](O)[C@H](Cc2ccccc2)NC(=O)c2cccc(C(=O)N(C)Cc3nc(C)cs3)c2)cc(C(=O)O)c1 [Compound 72, 3-(((2R,3S)-2-hydroxy-3-(3-(methyl((4-methylthiazol-2-yl)methyl)carbamoyl)benzamido)-4-phenylbutylamino)methyl)-5-methoxybenzoic acid] | < 300 nM | > 501 nM | > 501 nM | 1000 to 5000 nM |  |  |  |  |
| C[C@@H](NC(=O)c1cc(C(=O)N[C@@H](Cc2ccccc2)[C@H](O)CNCc2cncc(C(F)(F)F)c2)cc(N(C)S(C)(=O)=O)c1)c1ccccc1 [Compound 81, N1-((2S,3R)-3-hydroxy-1-phenyl-4-((5-(trifluoromethyl)pyridin-3-yl)methylamino)butan-2-yl)-5-(N-methylmethylsulfonamido)-N3-((R)-1-phenylethyl)isophthalamide] | < 300 nM | < 300 nM | > 501 nM | < 1000 nM |  |  |  |  |
| Cc1csc([C@@H](C)N(C)C(=O)c2cccc(C(=O)N[C@@H](Cc3ccccc3)[C@H](O)CNCc3cncc(C(C)C)c3)c2)n1 [Compound 82, N1-((2S,3R)-3-hydroxy-4-((5-isopropylpyridin-3-yl)methylamino)-1-phenylbutan-2-yl)-N3-methyl-N3-((R)-1-(4-methylthiazol-2-yl)ethyl)isophthalamide] | < 300 nM | 301 to 500 nM | 301 to 500 nM | < 1000 nM |  |  |  |  |
| C[C@@H](NC(=O)c1cc(C(=O)N[C@@H](Cc2ccccc2)[C@H](O)CNCc2cccc(Cl)c2)cc(N(C)S(C)(=O)=O)c1)c1ccccc1 [Compound 86, N1-((2S,3R)-4-(3-chlorobenzylamino)-3-hydroxy-1-phenylbutan-2-yl)-5-(N-methylmethylsulfonamido)-N3-((R)-1-phenylethyl)isophthalamide] | < 300 nM | < 300 nM | 301 to 500 nM | < 1000 nM |  |  |  |  |
| C[C@@H](NC(=O)c1cc(C(=O)N[C@@H](Cc2ccccc2)[C@H](O)CNCc2cccc(I)c2)cc(N(C)S(C)(=O)=O)c1)c1ccccc1 [Compound 88, N1-((2S,3R)-3-hydroxy-4-(3-iodobenzylamino)-1-phenylbutan-2-yl)-5-(N-methylmethylsulfonamido)-N3-((R)-1-phenylethyl)isophthalamide] | < 300 nM | < 300 nM | < 300 nM | < 1000 nM |  |  |  |  |
| C[C@@H](NC(=O)c1cc(C(=O)N[C@@H](Cc2ccccc2)[C@H](O)CNCc2cncc(C(C)(C)F)c2)cc(N(C)S(C)(=O)=O)c1)c1ccccc1 [Compound 89, N1-((2S,3R)-4-((5-(2-fluoropropan-2-yl)pyridin-3-yl)methylamino)-3-hydroxy-1-phenylbutan-2-yl)-5-(N-methylmethylsulfonamido)-N3-((R)-1-phenylethyl)isophthalamide] | < 300 nM | < 300 nM | < 300 nM | < 1000 nM |  |  |  |  |
| Cc1csc(CN(C)C(=O)c2cccc(C(=O)N[C@@H](Cc3ccccc3)[C@H](O)CNCc3cc(C(C)C)cc(N(C)C)c3)c2)n1 [Compound 90, N1-((2S,3R)-4-(3-(dimethylamino)-5-isopropylbenzylamino)-3-hydroxy-1-phenylbutan-2-yl)-N3-methyl-N3-((4-methylthiazol-2-yl)methyl)isophthalamide] | < 300 nM | > 501 nM | < 300 nM | < 1000 nM |  |  |  |  |
| Cc1cc(C(=O)N[C@@H](Cc2ccccc2)[C@H](O)CNCc2cncc(C(C)C)c2)cc(C(=O)N(C)Cc2nc(C)cs2)c1 [N1-((2S,3R)-3-hydroxy-4-((5-isopropylpyridin-3-yl)methylamino)-1-phenylbutan-2-yl)-N3,5-dimethyl-N3-((4-methylthiazol-2-yl)methyl)isophthalamide] |  |  |  |  | 16.8 nM | 264 nM | 32.3 nM | 6 nM |

Now from value to molecule:

| Ki [1, 5] | Ki ([2]; read-out: M1Ki) | Ki ([3]; read-out: CDKi) | IC50 [4, 6] | Ki ([1]; read-out: M2 Ki) | Ki ([2]; read-out: M1 Ki) | Ki ([3]; read-out: CathD Ki) | IC50 ([4]; CHO cells, 24 h incubation, Aβ40, read-out: IC50 (cellular Aβ production)) | Structure (SMILES) |
| --- | --- | --- | --- | --- | --- | --- | --- | --- |
| < 300 nM | < 300 nM | < 300 nM | < 1000 nM |  |  |  |  | Cc1cc(C(=O)N[C@@H](Cc2ccccc2)[C@H](O)CNCc2cncc(C(C)C)c2)cc(C(=O)N(C)Cc2nc(C)cs2)c1 [Compound 32, N1-((2S,3R)-3-hydroxy-4-((5-isopropylpyridin-3-yl)methylamino)-1-phenylbutan-2-yl)-N3,5-dimethyl-N3-((4-methylthiazol-2-yl)methyl)isophthalamide] |
| < 300 nM | 301 to 500 nM | < 300 nM | < 1000 nM |  |  |  |  | Cc1csc(CN(C)C(=O)c2cccc(C(=O)N[C@@H](Cc3ccccc3)[C@H](O)CNCc3ccnc(C(C)C)c3)c2)n1 [Compound 33, N1-((2S,3R)-3-hydroxy-4-((2-isopropylpyridin-4-yl)methylamino)-1-phenylbutan-2-yl)-N3-methyl-N3-((4-methylthiazol-2-yl)methyl)isophthalamide] |
| < 300 nM | < 300 nM | < 300 nM | < 1000 nM |  |  |  |  | COc1cc(C(=O)N[C@@H](Cc2ccccc2)[C@H](O)CNCc2cncc(C(C)C)c2)cc(C(=O)N(C)Cc2nc(C)cs2)c1 [Compound 40, N1-((2S,3R)-3-hydroxy-4-((5-isopropylpyridin-3-yl)methylamino)-1-phenylbutan-2-yl)-5-methoxy-N3-methyl-N3-((4-methylthiazol-2-yl)methyl)isophthalamide] |
| < 300 nM | < 300 nM | < 300 nM | < 1000 nM |  |  |  |  | Cc1cc(C(=O)N[C@@H](Cc2ccccc2)[C@H](O)CNCc2cncc(C(C)C)c2)cc(C(=O)N(Cc2nc(C)cs2)C2CC2)c1 [Compound 41, N1-cyclopropyl-N3-((2S,3R)-3-hydroxy-4-((5-isopropylpyridin-3-yl)methylamino)-1-phenylbutan-2-yl)-5-methyl-N1-((4-methylthiazol-2-yl)methyl)isophthalamide] |
| < 300 nM | > 501 nM | 301 to 500 nM | < 1000 nM |  |  |  |  | COc1cccc(CNC[C@@H](O)[C@H](Cc2ccccc2)NC(=O)c2cc(C(=O)N(C)Cc3nc(C)cs3)cc(C3=NCCO3)c2)c1 [Compound 46, 5-(4,5-dihydrooxazol-2-yl)-N1-((2S,3R)-3-hydroxy-4-(3-methoxybenzylamino)-1-phenylbutan-2-yl)-N3-methyl-N3-((4-methylthiazol-2-yl)methyl)isophthalamide] |
| < 300 nM | > 501 nM | > 501 nM | < 1000 nM |  |  |  |  | C[C@@H](NC(=O)c1cc(C(=O)N[C@@H](Cc2ccccc2)[C@H](O)CNCc2cccc(O)c2)cc(N(C)S(C)(=O)=O)c1)c1ccccc1 [Compound 71, N1-((2S,3R)-3-hydroxy-4-(3-hydroxybenzylamino)-1-phenylbutan-2-yl)-5-(N-methylmethylsulfonamido)-N3-((R)-1-phenylethyl)isophthalamide] |
